Reference: patent US20250235543A1, “MODIFIED PROTEINS AND PROTEIN DEGRADERS” (Cullgen (Shanghai), Inc., priority 2021, published 2025)
Where two headings read alike, the source gives them in different places.

Experiments:
cyclin D1 = experiment: Cyclin D1 percentage degradation in Calu-1 cells (immunoblotting); type: cell-based; conditions: 16 hours
Experimental: (§1) […] A: protein percentage degradation >=80%; B: protein percentage degradation <80%, and >=50%; C: protein percentage degradation <50%, and >=30%; D: protein percentage degradation <30%.
(§2) Cultured cells were washed with cold PBS once and lysed in cold RIPA buffer supplemented with protease inhibitors and phosphatase inhibitors (Beyotime Biotechnology). The solutions were then incubated at 4° C. for 30 min with gentle agitation to fully lysed cells. Cell lysates were centrifuged at 13,000 rpm for 10 min at 4° C. and pellets were discarded. Total protein concentrations in the lysates were determined following BCA assays (Beyotime Biotechnology). Cell lysates were mixed with Laemmli loading buffer and heated at 99° C. for 5 min. Proteins were resolved on SDS-PAGE and visualized using Western ECL Substrate kits on a ChemiDoc MP Imaging system (Bio-Rad). Protein bands were quantitated using the Image Lab software provided by Bio-Rad.

CDK4 = biological target: T1, CDK4 (Homo sapiens, UniProt P11802); experiment: CDK4 percentage degradation in Calu-1 cells (immunoblotting); type: cell-based; conditions: for inhibition at 0.2 µM: read-out: CDK4 Degradation (200 nM)
T1 construct: endogenous in cells; host or cells: Calu-1
T1 sequence (P11802 2-303 limits assumed): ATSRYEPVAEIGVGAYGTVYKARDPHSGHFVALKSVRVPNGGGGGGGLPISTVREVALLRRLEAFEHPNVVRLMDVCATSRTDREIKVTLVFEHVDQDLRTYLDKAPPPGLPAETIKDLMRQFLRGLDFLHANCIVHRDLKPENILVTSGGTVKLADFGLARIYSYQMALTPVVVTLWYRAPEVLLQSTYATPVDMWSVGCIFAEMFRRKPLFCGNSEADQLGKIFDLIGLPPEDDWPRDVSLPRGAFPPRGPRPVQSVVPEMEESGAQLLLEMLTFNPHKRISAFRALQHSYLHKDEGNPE
T1 sequence (P24385 whole entry partner): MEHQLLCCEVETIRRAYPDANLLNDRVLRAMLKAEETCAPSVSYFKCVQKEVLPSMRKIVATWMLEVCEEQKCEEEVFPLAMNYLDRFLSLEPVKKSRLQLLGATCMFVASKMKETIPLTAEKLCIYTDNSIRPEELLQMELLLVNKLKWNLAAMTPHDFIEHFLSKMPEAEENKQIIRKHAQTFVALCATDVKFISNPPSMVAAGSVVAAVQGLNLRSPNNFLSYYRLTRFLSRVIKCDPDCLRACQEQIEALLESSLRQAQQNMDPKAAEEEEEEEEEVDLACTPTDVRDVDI
T1 sequence (Q16531 2-1140 limits assumed, further chain): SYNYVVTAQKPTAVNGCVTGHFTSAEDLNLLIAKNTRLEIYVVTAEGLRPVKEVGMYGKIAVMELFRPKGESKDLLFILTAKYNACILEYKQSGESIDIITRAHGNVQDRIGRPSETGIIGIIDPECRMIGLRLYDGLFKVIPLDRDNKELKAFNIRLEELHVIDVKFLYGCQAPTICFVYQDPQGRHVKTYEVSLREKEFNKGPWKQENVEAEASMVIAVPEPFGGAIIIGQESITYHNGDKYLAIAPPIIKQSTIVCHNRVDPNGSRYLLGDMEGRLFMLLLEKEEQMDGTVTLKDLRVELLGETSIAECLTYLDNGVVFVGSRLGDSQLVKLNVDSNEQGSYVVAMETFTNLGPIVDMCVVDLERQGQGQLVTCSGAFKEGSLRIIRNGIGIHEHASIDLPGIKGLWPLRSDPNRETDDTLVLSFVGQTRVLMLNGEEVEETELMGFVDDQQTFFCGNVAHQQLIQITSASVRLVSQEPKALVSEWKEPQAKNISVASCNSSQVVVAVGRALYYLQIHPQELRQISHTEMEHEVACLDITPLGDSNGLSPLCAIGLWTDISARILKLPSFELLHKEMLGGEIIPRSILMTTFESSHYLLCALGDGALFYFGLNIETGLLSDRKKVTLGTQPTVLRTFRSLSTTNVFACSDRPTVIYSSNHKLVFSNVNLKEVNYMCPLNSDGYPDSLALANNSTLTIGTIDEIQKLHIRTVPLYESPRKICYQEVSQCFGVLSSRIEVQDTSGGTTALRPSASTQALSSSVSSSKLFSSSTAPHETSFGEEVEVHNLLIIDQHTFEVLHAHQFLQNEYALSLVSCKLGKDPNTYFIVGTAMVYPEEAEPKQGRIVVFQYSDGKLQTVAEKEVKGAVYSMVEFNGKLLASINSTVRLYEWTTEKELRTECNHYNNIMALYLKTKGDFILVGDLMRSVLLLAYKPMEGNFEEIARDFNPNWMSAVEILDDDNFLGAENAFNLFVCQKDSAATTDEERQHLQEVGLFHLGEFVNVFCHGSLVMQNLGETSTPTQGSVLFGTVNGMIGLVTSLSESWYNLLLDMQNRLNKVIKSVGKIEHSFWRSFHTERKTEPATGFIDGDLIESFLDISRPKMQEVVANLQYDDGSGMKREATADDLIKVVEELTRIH
Experimental: as §1, §2

Row | SMILES | CyclinD1 Degradation (200 nM) (cyclin D1) | inhibition at 0.2 µM (CDK4; Calu-1 cells, 200 nM, 16 hours) [%] | inhibition at 0.2 µM (CDK4; Calu-1, 16 h) [%] | CyclinD1 Degradation (10 μM) (cyclin D1; 10 μM) | inhibition at 10 µM (CDK4; Calu-1 cells, 10 μM, 16 hours, read-out: CDK4 Degradation (10 μM)) [%]
1 | CC(=O)c1c(C)c2cnc(Nc3ccc(N4CCN(CC(=O)NCCCCCCCNc5ccccc5C(=O)Nc5nc(C)c(C)s5)CC4)cn3)nc2n(C2CCCC2)c1=O [CPD-364, 2-((7-(2-(4-(6-((6-Acetyl-8-cyclopentyl-5-methyl-7-oxo-7,8-dihydropyrido[2,3-d]pyrimidin-2-yl)amino)pyridin-3-yl)piperazin-1-yl)acetamido)heptyl)amino)-N-(4,5-dimethylthiazol-2-yl)benzamide] | A (protein percentage degradation >=80%) | 50 to 80 |  |  | 
2 | CC(=O)c1c(C)c2cnc(Nc3ccc(N4CCN(CC(=O)NCCOCCOCCOCCOCCOCCNc5ccc(C)c(C(=O)Nc6nc(C)c(C)s6)c5)CC4)cn3)nc2n(C2CCCC2)c1=O [CPD-097, 5-((1-(4-(6-((6-Acetyl-8-cyclopentyl-5-methyl-7-oxo-7,8-dihydropyrido[2,3-d]pyrimidin-2-yl)amino)pyridin-3-yl)piperazin-1-yl)-2-oxo-6,9,12,15,18-pentaoxa-3-azaicosan-20-yl)amino)-N-(4,5-dimethylthiazol-2-yl)-2-methylbenzamide] | A (protein percentage degradation >=80%) | 50 to 80 |  |  | 
3 | CC(=O)c1c(C)c2cnc(Nc3ccc(N4CCN(CC(=O)NCCOCCOCCC(=O)Nc5ccccc5C(=O)Nc5ccccn5)CC4)cn3)nc2n(C2CCCC2)c1=O [CPD-053, 2-(3-(2-(2-(2-(4-(6-((6-Acetyl-8-cyclopentyl-5-methyl-7-oxo-7,8-dihydropyrido[2,3-d]pyrimidin-2-yl)amino)pyridin-3-yl)piperazin-1-yl)acetamido)ethoxy)ethoxy)propanamido)-N-(pyridin-2-yl)benzamide] | B (protein percentage degradation <80%, and >=50%) | 50 to 80 |  |  | 
4 | CNc1ccc(C(=O)Nc2nc(C)c(C)s2)c(NC(=O)CCOCCOCCNC(=O)CN2CCN(c3ccc(Nc4ncc5c(C)c(C(C)=O)c(=O)n(C6CCCC6)c5n4)nc3)CC2)c1 [CPD-164, 2-(3-(2-(2-(2-(4-(6-((6-Acetyl-8-cyclopentyl-5-methyl-7-oxo-7,8-dihydropyrido[2,3-d]pyrimidin-2-yl)amino)pyridin-3-yl)piperazin-1-yl)acetamido)ethoxy)ethoxy)propanamido)-N-(4,5-dimethylthiazol-2-yl)-4-(methylamino)benzamide] | A (protein percentage degradation >=80%) | 50 to 80 |  |  | 
5 | CC(=O)c1c(C)c2cnc(Nc3ccc(N4CCN(C(=O)CCCCCCCNc5cccc(C(=O)Nc6nc(C)c(C)s6)c5C)CC4)cn3)nc2n(C2CCCC2)c1=O [CPD-125, 3-((8-(4-(6-((6-Acetyl-8-cyclopentyl-5-methyl-7-oxo-7,8-dihydropyrido[2,3-d]pyrimidin-2-yl)amino)pyridin-3-yl)piperazin-1-yl)-8-oxooctyl)amino)-N-(4,5-dimethylthiazol-2-yl)-2-methylbenzamide] | D (protein percentage degradation <30%) |  | < 30 |  | 
6 | CC(=O)c1c(C)c2cnc(Nc3ccc(N4CCN(CC(=O)NCCOCCOCCC(=O)Nc5cc(N(C)C)ccc5C(=O)Nc5nc(C)c(C)s5)CC4)cn3)nc2n(C2CCCC2)c1=O [CPD-155, 2-(3-(2-(2-(2-(4-(6-((6-Acetyl-8-cyclopentyl-5-methyl-7-oxo-7,8-dihydropyrido[2,3-d]pyrimidin-2-yl)amino)pyridin-3-yl)piperazin-1-yl)acetamido)ethoxy)ethoxy)propanamido)-4-(dimethylamino)-N-(4,5-dimethylthiazol-2-yl)benzamide] | A (protein percentage degradation >=80%) | 50 to 80 |  |  | 
7 | CC(=O)c1c(C)c2cnc(Nc3ccc(N4CCN(C(=O)CCCCCCC(=O)Nc5ccccc5C(=O)Nc5nc(C)c(C)s5)CC4)cn3)nc2n(C2CCCC2)c1=O [CPD-161, 2-(8-(4-(6-((6-Acetyl-8-cyclopentyl-5-methyl-7-oxo-7,8-dihydropyrido[2,3-d]pyrimidin-2-yl)amino)pyridin-3-yl)piperazin-1-yl)-8-oxooctanamido)-N-(4,5-dimethylthiazol-2-yl)benzamide] | D (protein percentage degradation <30%) |  | < 30 |  | 
8 | CC(=O)c1c(C)c2cnc(Nc3ccc(N4CCN(CC(=O)NCCOCCOCCC(=O)Nc5ccccc5C(=O)Nc5cc(C)n(C)n5)CC4)cn3)nc2n(C2CCCC2)c1=O [CPD-052, 2-(3-(2-(2-(2-(4-(6-((6-Acetyl-8-cyclopentyl-5-methyl-7-oxo-7,8-dihydropyrido[2,3-d]pyrimidin-2-yl)amino)pyridin-3-yl)piperazin-1-yl)acetamido)ethoxy)ethoxy)propanamido)-N-(1,5-dimethyl-1H-pyrazol-3-yl)benzamide] | A (protein percentage degradation >=80%) | 50 to 80 |  |  | 
9 | CC(=O)c1c(C)c2cnc(Nc3ccc(N4CCN(CC(=O)NCCOCCOCCOCCNC(=O)c5ccc(C(=O)Nc6ncc(C)s6)c(C)c5)CC4)cn3)nc2n(C2CCCC2)c1=O [CPD-011, N^4-(1-(4-(6-((6-Acetyl-8-cyclopentyl-5-methyl-7-oxo-7,8-dihydropyrido[2,3-d]pyrimidin-2-yl)amino)pyridin-3-yl)piperazin-1-yl)-2-oxo-6,9,12-trioxa-3-azatetradecan-14-yl)-2-methyl-N^1-(5-methylthiazol-2-yl)terephthalamide] | D (protein percentage degradation <30%) | < 30 |  |  | 
10 | CC(=O)c1c(C)c2cnc(Nc3ccc(N4CCN(CC(=O)NCCOCCOCCC(=O)Nc5cccc(C)c5C(=O)Nc5nc(C)c(C)s5)CC4)cn3)nc2n(C2CCCC2)c1=O [CPD-139, 2-(3-(2-(2-(2-(4-(6-((6-Acetyl-8-cyclopentyl-5-methyl-7-oxo-7,8-dihydropyrido[2,3-d]pyrimidin-2-yl)amino)pyridin-3-yl)piperazin-1-yl)acetamido)ethoxy)ethoxy)propanamido)-N-(4,5-dimethylthiazol-2-yl)-6-methylbenzamide] | D (protein percentage degradation <30%) | < 30 |  |  | 
11 | Cc1nc(NC(=O)c2ccccc2NC(=O)CCNC(=O)CN2CCN(c3ccc(Nc4ncc(F)c(-c5cc(F)c6nc(C)n(C(C)C)c6c5)n4)nc3)CC2)sc1C [CPD-301, N-(4,5-Dimethylthiazol-2-yl)-2-(3-(2-(4-(6-((5-fluoro-4-(4-fluoro-1-isopropyl-2-methyl-1H-benzo[d]imidazol-6-yl)pyrimidin-2-yl)amino)pyridin-3-yl)piperazin-1-yl)acetamido)propanamido)benzamide] |  |  |  | D (protein percentage degradation < 30%) | < 30
12 | CC(=O)c1c(C)c2cnc(Nc3ccc(N4CCN(CC(=O)NCCOCCOCCC(=O)Nc5ccccc5C(=O)Nc5ccc(C#N)nn5)CC4)cn3)nc2n(C2CCCC2)c1=O [CPD-369, 2-(3-(2-(2-(2-(4-(6-((6-Acetyl-8-cyclopentyl-5-methyl-7-oxo-7,8-dihydropyrido[2,3-d]pyrimidin-2-yl)amino)pyridin-3-yl)piperazin-1-yl)acetamido)ethoxy)ethoxy)propanamido)-N-(6-cyanopyridazin-3-yl)benzamide] | D (protein percentage degradation <30%) | < 30 |  |  | 
